Data as given in patent US20240238423A9, “TETRAHYDROISOQUINOLINE HETEROBIFUNCTIONAL BCL-XL DEGRADERS” (Treeline Biosciences, Inc., priority 2022, published 2024).
Where two headings read alike, the source gives them in different places.

Target: T1, Human BCL-XL protein (N-terminal HiBiT tagged BCL-XL in HT1080 cells) (Homo sapiens, UniProt Q07817)
T1 construct: expressed in transfected cells; host or cells: HT-1080 (ATCC CCL-121), stably transduced with lentivirus pLV-UBC-N-HiBiT-BCL-XL-PGK-puro and selected with puromycin
Assay: HiBiT based degradation assay
Assay type: cell-based
Conditions: HT1080 cells expressing HiBiT-BCL-XL; for Ymin (6 h) / Ymin (24 h): BCL-XL degradation normalized with DMSO control; for DC50: BCL-XL degradation
Procedure, shortened: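 HT1080 cells stably transduced by lentivirus with N-terminally HiBiT-tagged human BCL-XL and kept under 1 μg/mL puromycin selection were seeded at three thousand cells per well in 40 μL RPMI 1640 into 384-well plates pre-spotted with compounds across a concentration range. Luminescence was read on a PHERAstar FSX, normalized to DMSO, and fitted with a four-parameter logistic model.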

T1 sequence (Q07817 whole entry): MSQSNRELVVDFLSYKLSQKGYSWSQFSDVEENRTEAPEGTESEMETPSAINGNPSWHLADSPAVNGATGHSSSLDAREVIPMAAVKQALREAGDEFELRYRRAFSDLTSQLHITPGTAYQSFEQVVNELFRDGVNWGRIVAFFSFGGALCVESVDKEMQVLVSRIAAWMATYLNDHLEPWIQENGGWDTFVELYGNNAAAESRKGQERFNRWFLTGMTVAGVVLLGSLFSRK

Structure (SMILES)	Ymin (6 h)	Ymin (24 h)	DC50 (6 h, read-out: EC50 (6 h)) [nM]	DC50 (24 h, read-out: EC50 (24 h)) [nM]
Cc1c(OCCC2CCN(CC(=O)Nc3cccc4c(C5CCC(=O)NC5=O)nn(C)c34)CC2)cccc1-c1ccc(N2CCc3cccc(C(=O)Nc4nc5ccccc5s4)c3C2)nc1C(=O)O (stereo not shown) [Compound 101, 6-[8-(1,3-benzothiazol-2-ylcarbamoyl)-3,4-dihydro-1H-isoquinolin-2-yl]-3-[3-[2-[1-[2-[[3-(2,6-dioxo-3-piperidyl)-1-methyl-indazol-7-yl]amino]-2-oxo-ethyl]-4-piperidyl]ethoxy]-2-methyl-phenyl]pyridine-2-carboxylic acid]	B (50% ≤ Ymin < 70%)	B (50% ≤ Ymin < 70%)	< 100	< 100
Cc1c(O[C@H]2CC[C@H](CCCN3CCN(c4cccc5c(C6CCC(=O)NC6=O)nn(C)c45)CC3)CC2)cccc1-c1ccc(N2CCc3cccc(C(=O)Nc4nc5ccccc5s4)c3C2)nc1C(=O)O (stereo partly shown) [Compound 147a, 6-(8-(benzo[d]thiazol-2-ylcarbamoyl)-3,4-dihydroisoquinolin-2(1H)-yl)-3-(3-(((1s,4r)-4-(3-(4-(3-(2,6-dioxopiperidin-3-yl)-1-methyl-1H-indazol-7-yl)piperazin-1-yl)propyl)cyclohexyl)oxy)-2-methylphenyl)picolinic acid]	B (50% ≤ Ymin < 70%)	A (Ymin < 50%)	< 100	< 100
Cc1c(O[C@H]2CC[C@H](CCCCN3CCN(c4cccc5c(C6CCC(=O)NC6=O)nn(C)c45)CC3)CC2)cccc1-c1ccc(N2CCc3cccc(C(=O)Nc4nc5ccccc5s4)c3C2)nc1C(=O)O (stereo partly shown) [Compound 204a, 6-(8-(benzo[d]thiazol-2-ylcarbamoyl)-3,4-dihydroisoquinolin-2(1H)-yl)-3-(3-(((1s,4r)-4-(4-(4-(3-(2,6-dioxopiperidin-3-yl)-1-methyl-1H-indazol-7-yl)piperazin-1-yl)butyl)cyclohexyl)oxy)-2-methylphenyl)picolinic acid]		B (50% ≤ Ymin < 70%)		< 100
Cc1c(Oc2ccc(CCCNc3ccc4c(C5CCC(=O)NC5=O)nn(C)c4c3)cc2)cccc1-c1ccc(N2CCc3cccc(C(=O)Nc4nc5ccccc5s4)c3C2)nc1C(=O)O (stereo not shown) [Compound 123, 6-[8-(1,3-benzothiazol-2-ylcarbamoyl)-3,4-dihydro-1H-isoquinolin-2-yl]-3-[3-[4-[3-[[3-(2,6-dioxo-3-piperidyl)-1-methyl-indazol-6-yl]amino]propyl]phenoxy]-2-methyl-phenyl]pyridine-2-carboxylic acid]	C (Ymin ≥ 70%)		100 to 1000	
Cc1cc(Oc2ccc(CCC(=O)Nc3ccc4c(C5CCC(=O)NC5=O)nn(C)c4c3)cc2)ccc1-c1ccc(N2CCc3cccc(C(=O)Nc4nc5ccccc5s4)c3C2)nc1C(=O)O (stereo not shown) [Compound 139, 6-(8-(benzo[d]thiazol-2-ylcarbamoyl)-3,4-dihydroisoquinolin-2(1H)-yl)-3-(4-(4-(3-((3-(2,6-dioxopiperidin-3-yl)-1-methyl-1H-indazol-6-yl)amino)-3-oxopropyl)phenoxy)-2-methylphenyl)picolinic acid]	B (50% ≤ Ymin < 70%)	B (50% ≤ Ymin < 70%)	100 to 1000	100 to 1000
Cc1c(OCCC2CCN(CC(=O)Nc3ccc4c(C5CCC(=O)NC5=O)nn(C)c4c3)CC2)cccc1-c1ccc(N2CCc3cccc(C(=O)Nc4nc5ccccc5s4)c3C2)nc1C(=O)O (stereo not shown) [Compound 106, 6-[8-(1,3-benzothiazol-2-ylcarbamoyl)-3,4-dihydro-1H-isoquinolin-2-yl]-3-[3-[2-[1-[2-[[3-(2,6-dioxo-3-piperidyl)-1-methyl-indazol-6-yl]amino]-2-oxo-ethyl]-4-piperidyl]ethoxy]-2-methyl-phenyl]pyridine-2-carboxylic acid]	A (Ymin < 50%)	A (Ymin < 50%)	< 100	< 100
Cc1c(O[C@H]2CC[C@H](CCC(=O)Nc3cccc4c(C5CCC(=O)NC5=O)nn(C)c34)CC2)cccc1-c1ccc(N2CCc3cccc(C(=O)Nc4nc5ccccc5s4)c3C2)nc1C(=O)O (stereo partly shown) [Compound 124a, 6-(8-(benzo[d]thiazol-2-ylcarbamoyl)-3,4-dihydroisoquinolin-2(1H)-yl)-3-(3-(((1r,4r)-4-(3-((3-(2,6-dioxopiperidin-3-yl)-1-methyl-1H-indazol-7-yl)amino)-3-oxopropyl)cyclohexyl)oxy)-2-methylphenyl)picolinic acid]	C (Ymin ≥ 70%)	C (Ymin ≥ 70%)	1000 to 10000	< 100
Cc1c(O[C@H]2CC[C@H](CCCCN3CCN(c4ccc5c(C6CCC(=O)NC6=O)nn(C)c5c4C)CC3)CC2)cccc1-c1ccc(N2CCc3cccc(C(=O)Nc4nc5ccccc5s4)c3C2)nc1C(=O)O (stereo partly shown) [Compound 324a, 6-(8-(benzo[d]thiazol-2-ylcarbamoyl)-3,4-dihydroisoquinolin-2(1H)-yl)-3-(3-(((1s,4r)-4-(4-(4-(3-(2,6-dioxopiperidin-3-yl)-1,7-dimethyl-1H-indazol-6-yl)piperazin-1-yl)butyl)cyclohexyl)oxy)-2-methylphenyl)picolinic acid]		A (Ymin < 50%)		< 100
Cc1cc(OCCCN2CCN(CC(=O)Nc3ccc4c(C5CCC(=O)NC5=O)nn(C)c4c3)CC2)ccc1-c1ccc(N2CCc3cccc(C(=O)Nc4nc5ccccc5s4)c3C2)nc1C(=O)O (stereo not shown) [Compound 119, 6-[8-(1,3-benzothiazol-2-ylcarbamoyl)-3,4-dihydro-1H-isoquinolin-2-yl]-3-[4-[3-[4-[2-[[3-(2,6-dioxo-3-piperidyl)-1-methyl-indazol-6-yl]amino]-2-oxo-ethyl]piperazin-1-yl]propoxy]-2-methyl-phenyl]pyridine-2-carboxylic acid]	A (Ymin < 50%)	A (Ymin < 50%)	< 100	< 100
Cc1c(O[C@H]2CC[C@H](CCCCN3CCN(c4cc5c(cc4F)c(C4CCC(=O)NC4=O)nn5C)CC3)CC2)cccc1-c1ccc(N2CCc3cccc(C(=O)Nc4nc5ccccc5s4)c3C2)nc1C(=O)O (stereo partly shown) [Compound 296a, 6-(8-(benzo[d]thiazol-2-ylcarbamoyl)-3,4-dihydroisoquinolin-2(1H)-yl)-3-(3-(((1s,4r)-4-(4-(4-(3-(2,6-dioxopiperidin-3-yl)-5-fluoro-1-methyl-1H-indazol-6-yl)piperazin-1-yl)butyl)cyclohexyl)oxy)-2-methylphenyl)picolinic acid]		A (Ymin < 50%)		< 100
Cc1c(O[C@H]2CC[C@H](C[C@@H](C)CN3CCN(c4cccc5c(C6CCC(=O)NC6=O)nn(C)c45)CC3)CC2)cccc1-c1ccc(N2CCc3cccc(C(=O)Nc4nc5ccccc5s4)c3C2)nc1C(=O)O (single isomer, unassigned) [Compound 284b, 6-(8-(benzo[d]thiazol-2-ylcarbamoyl)-3,4-dihydroisoquinolin-2(1H)-yl)-3-(3-(((1R,4r)-4-((2R*)-3-(4-(3-(2,6-dioxopiperidin-3-yl)-1-methyl-1H-indazol-7-yl)piperazin-1-yl)-2-methylpropyl)cyclohexyl)oxy)-2-methylphenyl)picolinic acid]		A (Ymin < 50%)		< 100
